Experimental data as given in ChEMBL document CHEMBL3046840, “Cyclobutane carboxamide inhibitors of fungal melanin: biosynthesis and their evaluation as fungicides” (Bioorg Med Chem, 2000).

Biological target: T1, Scytalone dehydratase (Magnaporthe oryzae (strain 70-15 / FGSC 8958) (Rice blast fungus)(Pyricularia oryzae), UniProt P56221)
T1 sequence (P56221 whole entry): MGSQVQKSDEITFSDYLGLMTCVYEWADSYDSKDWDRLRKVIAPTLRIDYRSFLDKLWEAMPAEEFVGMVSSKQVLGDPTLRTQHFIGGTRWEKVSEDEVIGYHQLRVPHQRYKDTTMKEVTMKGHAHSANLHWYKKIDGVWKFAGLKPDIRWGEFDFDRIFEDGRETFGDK

| SMILES | Ki [nM] |
| --- | --- |
| C[C@@H](NC(=O)[C@]1(C)C[C@](C)(Cl)C1)c1ccc2ccccc2c1 | 0.016 |
| C[C@@H](NC(=O)[C@]1(C)C[C@@](Cl)(CCl)C1)c1ccc(Br)cc1 | 0.016 |
| C[C@@H](NC(=O)C1(C)CC(F)(F)C1)c1ccc(Br)cc1 | 6 |
| C[C@@H](NC(=O)C1CCC1)c1ccc(Br)cc1 | 520 |
| C[C@@H](NC(=O)C1(Cl)CC(C)(Cl)C1)c1ccc(Br)cc1 (mixture of isomers) | 0.31 |
| C[C@@H](NC(=O)[C@]1(C)C[C@](C)(Cl)C1)c1cccc2ccccc12 | 3.2 |
| CC[C@]1(C(=O)N[C@H](C)c2ccc(Br)cc2)C[C@@](C)(Cl)C1 | 0.021 |
| C[C@@H](NC(=O)C(C#N)C(C)(C)C)c1ccc(Cl)cc1Cl (stereo not given in full) [DICLOCYMET] | 0.036 |
| C[C@@H](NC(=O)[C@]1(C)C[C@](Cl)(CCl)C1)c1ccc(Br)cc1 | 0.027 |
| C[C@@H](NC(=O)[C@]1(C)C[C@](C)(O)C1)c1ccc(Br)cc1 | 480 |
| C[C@H](COc1cc(F)ccc1Cl)NC(=O)[C@]1(C)C[C@](C)(Cl)C1 | 0.057 |
| C[C@@H](NC(=O)[C@]1(C)C[C@](C)(Cl)C1)c1ccc(Cl)cc1Cl | 0.012 |
| C[C@@H](NC(=O)[C@H]1C[C@@](C)(Cl)C1)c1ccc(Br)cc1 | 44 |
| C#C[C@]1(O)C[C@@](C)(C(=O)N[C@H](C)c2ccc(Br)cc2)C1 | 28 |
| C[C@@H](NC(=O)[C@]1(C(F)(F)F)C[C@@](C)(Cl)C1)c1ccc(Cl)cc1Cl | 0.011 |
| CC[C@]1(O)C[C@@](C)(C(=O)N[C@H](C)c2ccc(Br)cc2)C1 | 3.2 |
| C[C@H](COc1cc(F)ccc1F)NC(=O)[C@]1(C)C[C@](C)(Cl)C1 | 0.42 |
| C[C@@H](NC(=O)[C@]1(C(F)(F)F)C[C@@](C)(Cl)C1)c1ccc(Cl)cc1 | 0.067 |
| C[C@@H](NC(=O)[C@]1(C(F)(F)F)C[C@@](C)(Cl)C1)c1ccc(Br)cc1 | 0.43 |
| COc1cc(Br)ccc1C(C)NC(=O)[C@]1(C)C[C@](C)(Cl)C1 (mixture of isomers) | 0.03 |
| C[C@@H](NC(=O)[C@]1(C)C[C@@](C)(O)C1)c1ccc(Br)cc1 | 16 |
| C[C@@H](NC(=O)[C@]1(C)C[C@](C)(Cl)C1)c1ccc(Br)cc1 | 0.1 |
| CC(C)C(C)(C#N)NC(=O)[C@H](C)Oc1ccc(Cl)cc1Cl (stereo not given in full) | 0.13 |
| C[C@H](COc1ccccc1F)NC(=O)[C@]1(C(F)(F)F)C[C@@](C)(Cl)C1 | 0.35 |
| C[C@@H](NC(=O)C1(Cl)CC(Cl)(Cl)C1)c1ccc(Br)cc1 | 0.45 |
